# Assay results from patent US7129271B2, “Compounds for pest control and methods for their use” (The United States of America as represented by the …, priority 2000, dated 2006).
# Where two headings read alike, the source gives them in different places.
# Legend:
# [1] = test system: I. scapularis nymphs, X. cheopis adults, and Ae. aegypti adults; test: Initial screening against all three arthropods (Example 9); assay type: in vivo; conditions: 24 hours exposure; ticks, fleas, mosquitoes
# Procedure: Valencene-13-aldehyde was prepared by oxidation of valencene with SeO2. […] Commercial samples of nootkatone for comparison were obtained from Bedoukian Research, Inc., Danbury, Conn. (semi-synthetic crystalline) and Frutarom, Inc. N.J. (from grapefruit oil). […] The compounds identified by an asterisk—nos.
# [2] = test system: adult I. scapularis ticks; test: Treated-vial biocidal screening, residual challenge (Example 2); assay type: in vivo, Ixodes scapularis; conditions: treated vials sat 4 wk; arthropods added for final 24 h
# Procedure: (§1) Samples of the compounds listed below Were obtained from Dr. Karchesy, a co-inventor, and screened for biocidal activities against nymphal Ixodes scapularis. In this example, 2% acetone solutions (wt./vol.) of the compounds were applied to inner surfaces of 2-dram friction cap vials. Vials and caps were treated then allowed to dry for a minimum of 4 hours before placing 10 nymphs in each container. These same vials were used to challenge additional nymphs and adult I. scapularis ticks and adult Xenopsylla cheopis fleas through five weeks to observe any possible residual activity.
# (§2) Numbers in parentheses refer to length of treatment in terms of hours (h) or weeks (wk). Data is presented in terms of number killed/number tested. For test periods longer than 24 hours, the treated vials were allowed to sit for the stated period after drying (72 h, 4 wk, or 5 wk) and each group of arthropods was added to the vials for the final 24 h of the test period.
# X. cheopis adults = test: Flea bioassay, treated vials (Example 9); assay type: in vivo; conditions: 24 h exposure, 95% CI in parentheses
# Procedure: Flea Colonies. Adult X. cheopis fleas (1–3 wk old) were obtained from a colony founded more than eight years ago using adults received from Tom Schwan, Rocky Mountain Laboratories, Hamilton, Mont. The area from which these original adult fleas were obtained, and the resulting colony, have no known histories of pesticide exposure.
# (§3) Tick and Flea Bioassays. Concentrations of the compounds were prepared by 2-fold serial dilutions of a 0.5% (wt:vol) solution of the extracts in acetone. […] A control treated with acetone only was run with each series. Tick and flea susceptibility was evaluated using a modified disposable pipette method. See, Barnard, D. R., et al., J. Econ. Entomol.
# (§4) The inner surface of 2-dram friction cap vials were treated with the compound/acetone solution, or acetone only as a control, and left to air-dry overnight. Three to 4 holes were made in the plastic cap to allow for air exchange. Nymphal ticks and adult fleas were then placed directly into the vials using forceps. Vials containing ticks or fleas were placed in desiccators for 24 h at 21° C. and 90% RH. Morbidity and mortality was recorded at 1, 2, 4, 8, and 24 h after initial exposure.
# [3] = test system: ticks, fleas, and mosquitoes; test: Residual activity, overall statements for ticks, fleas and mosquitoes (Example 9); conditions: 1 to 4 weeks after treatment
# [4] = test system: nymphal Ixodes scapularis; test: Treated-vial biocidal screening, 2% acetone solutions (Example 2); assay type: in vivo; conditions: for I. scapularis nymphs (24 h), number killed/number tested: 2% acetone solution (wt./vol.) dried in vials; for I. scapularis nymphs (72 h), number killed/number tested: treated vials sat 72 h, arthropods added for final 24 h
# Procedure: as §1, §2
# Ixodes scapularis nymphs = test: Residual activity, treated vials aged before loading (Example 9); assay type: in vivo
# Procedure: as §3, with “acetone. The approximate toxicity of individual compounds was determined with a total of 8 doses ranging from 0.002% to 0.25%.” for “acetone.”, “Entomol. 74:466–69 (1981).” for “Entomol.”
# as §4, with “Groups of 10 nymphal I. scapularis and X. cheopis fleas were used in all tests, resulting in a total of 5,240 nymphs and 4,860 fleas exposed to the compounds. The” for “The”
# Aedes aegypti adults = test: Residual activity, treated bottles aged before loading (Example 9); assay type: in vivo
# Procedure: (§5) Mosquit Bioassay. Adult mosquitoes were tested using the bottle bioassay method of Brogden, W. G., and McAllister, J. C., J. Am. Mosq. Control Assoc. 14:159–64 (1998), with minor modifications. Natural product extracts were two-fold serially diluted for a total of 8 concentrations ranging from 0.002% to 0.25% in 1.5 ml of acetone. Individual dilutions were added to 250 ml Wheaton glass bottles and capped. Bottles were manipulated to evenly coat all inner surfaces. The caps were removed and bottles were allowed to air-dry overnight. Once bottles were completely dry, 10–50 adult mosquitoes were aspirated into the bottles. Mosquitoes were held in the bottles for 24 h at 23° C. and 85% RH. Morbidity and mortality were recorded at 15, 30, 45, and 60 min and 24 hour intervals. One bottle for each replicate was treated with acetone only and served as a control. The dose-mortality data was evaluated with probit analysis, using the LdP Line software, to determine LC50 and LC90 values.
# Ae. aegypti adults = test: Mosquito bottle bioassay (Example 9); assay type: in vivo; conditions: 24 h exposure, 95% CI in parentheses
# Procedure: Mosquito Colonies. Aedes aegypti adult mosquitoes were obtained from an existing colony at the Centers for Disease Control and Prevention (CDC), Division of Vector-Borne Infectious Diseases (DVBID), Fort Collins, Colo. This colony has been maintained for over fifteen years with no known history of exposure to pesticides. Mosquitoes were reared at 28° C., 85% RH, and a 14:10 h (light:dark) cycle. Larvae were grown in de-ionized water and fed ground liver powder solution ad libitum. Fourth instars were removed and placed in emergence cages, and adults were fed a 2% sucrose solution until assayed. Adults were exposed to test products at 4–7 d after emergence.
# as §5
# [5] = test system: adult Xenopsylla cheopis fleas; test: Treated-vial biocidal screening, residual challenge (Example 2); assay type: in vivo; conditions: treated vials sat 5 wk; arthropods added for final 24 h
# Procedure: as §1, §2
# I. scapularis nymphs = test: Tick bioassay, modified disposable pipette method, treated vials (Example 9); assay type: in vivo, Ixodes scapularis
# Procedure: Tick Colonies. […] There was no known pesticide used at this location. Ticks were maintained at 21° C., 90% RH, and received a 16:8 h (light:dark) cycle as described in […]. Med. […] Tick and Flea Bioassays. […] A control treated with acetone only was run with each series. Tick and flea susceptibility was evaluated using a modified disposable pipette method. See, Barnard, D. R., et al., J. Econ. […] Three to 4 holes were made in the plastic cap to allow for air exchange. Nymphal ticks and adult fleas were then placed directly into the vials using forceps. Vials containing ticks or fleas were placed in desiccators for 24 h at 21° C. and 90% RH. […] For each time point, if ticks were incapable of movement, maintaining normal posture, leg coordination, ability to right themselves, or any signs of life, they were considered moribund or dead.
# [6] = test system: ticks, fleas, formicids and termites; test: Persistence of biocidal activity, vials treated with 2% solutions (Example 5); assay type: in vivo
# Procedure: as §1
# Persistence of biocidal activity was determined for nootkatone and valencene-11,12-epoxide by using the vials as treated with the 2% solutions of Example 2. […] At 11 weeks, the biocidal activity began to dissipate below the 100% mortality level.
# [7] = test system: Xenopsylla cheopis adults; test: Residual activity, treated vials aged before loading (Example 9); assay type: in vivo
# Procedure: as §3, with “acetone. The approximate toxicity of individual compounds was determined with a total of 8 doses ranging from 0.002% to 0.25%.” for “acetone.”, “Entomol. 74:466–69 (1981).” for “Entomol.”
# as §4, with “Groups of 10 nymphal I. scapularis and X. cheopis fleas were used in all tests, resulting in a total of 5,240 nymphs and 4,860 fleas exposed to the compounds. The” for “The”
# nymphal I. scapularis = test: Baseline dose-mortality, method of Maupin and Piesman 1994 (Example 7); assay type: in vivo; conditions: nymphal ticks
# Excerpt: Baseline dose-mortalities were established for nymphal I. scapularis for nootkatone and valencene-11,12-epoxide using the method described in Maupin, G. O., and Piesman, J., J. Med. Entomol., 31:319–21 (1994).
# A comparison of relative potency was made with published data for carbaryl and permethrin (Maupin and Piesman, 1994) and Alaska yellow cedar essential oil (Panella et al., J. Med. Entomol. 34:340–45 (1997) is presented in Table 6.
# Culex p. pipiens = test: Mosquito susceptibility, serial dilutions (Example 8); conditions: in vivo
# [8] = residual activity at 1 week after treatment
# [9] = 24 h exposure, 95% CI in parentheses
# [10] = residual activity at 2 weeks after treatment
# [11] = residual activity at 4 weeks after treatment
# [12] = Aedes aegypti, 24 h, read-out: LC50
SMILES,"I. scapularis adults (4 wk), number killed/number tested [2]",LC50 (X. cheopis adults),residual activity (in words) [3],"I. scapularis nymphs (24 h), number killed/number tested [4]","I. scapularis nymphs (72 h), number killed/number tested [4]",LC50 (Ixodes scapularis nymphs; [8]),LC90 (Ixodes scapularis nymphs; [8]),LC50 (Aedes aegypti adults; [8]),LC90 (Aedes aegypti adults; [8]),"X. cheopis adults (5 wk), number killed/number tested [5]",LC50 (I. scapularis nymphs; [9]),"LC50 [7, 8]","LC90 [7, 8]","LC50 [7, 10]","LC90 [7, 10]",LC50 (Ixodes scapularis nymphs; [10]),LC90 (Ixodes scapularis nymphs; [10]),LC50 (Ixodes scapularis nymphs; [11]),LC90 (Ixodes scapularis nymphs; [11]),LC50 (Aedes aegypti adults; [10]),further results
"CC1=CCC2C(C1)C2(C)C (stereo not drawn) [Compound 1, 3-Carene]",,,,,,,,,,,,,,,,,,,,,pesticidal activity in initial screening [1]: no pesticidal activity
"C=C(C)C1CC=C2C=CCC(C)C2(C)C1 (stereo not drawn) [Compound 6, Nootkatene]",0/5,"0.017 (0.012–0.024) percent concentration, wt:vol",nearly inactive,10/10,4/5,"2.062 percent concentration, wt:vol","524.656 percent concentration, wt:vol","0.132 (0.096–0.236) percent concentration, wt:vol","0.659 (0.329–2.855) percent concentration, wt:vol",0/5,"0.011 (0.0086–0.014) percent concentration, wt:vol",,,,,,,,,,"LC90 (X. cheopis adults): 0.075 (0.049–0.151) percent concentration, wt:vol; LC50 (X. cheopis adults; listed as compound 6): 0.017 percent concentration, wt:vol; residual activity (in words) ([3]; listed as compound 6): did not demonstrate any residual activity after one week; LC50 (Ae. aegypti adults): 0.027 percent concentration, wt:vol; LC90 (Ae. aegypti adults): 0.059 percent concentration, wt:vol; LC90 (I. scapularis nymphs; [9]): 0.06 (0.043–0.098) percent concentration, wt:vol; LC50 (I. scapularis nymphs; 24 h exposure, 95% CI in parentheses, listed as compound 6): 0.011 percent concentration, wt:vol"
"C=C(C)[C@@H]1CCC2=CC(=O)C[C@@H](C)[C@]2(C)C1 [Compound 7, Nootkatone]",5/5,"0.0083 (0.0064–0.01) percent concentration, wt:vol",considerable biological activity,10/10,5/5,"0.023 percent concentration, wt:vol","0.13 percent concentration, wt:vol","0.02 (0.014–0.029) percent concentration, wt:vol","0.054 (0.041–0.105) percent concentration, wt:vol",5/5,"0.0029 (0.0025–0.0034) percent concentration, wt:vol","0.016 (0.012–0.02) percent concentration, wt:vol","0.05 (0.036–0.081) percent concentration, wt:vol","0.031 percent concentration, wt:vol","0.134 percent concentration, wt:vol","0.026 (0.018–0.039) percent concentration, wt:vol","0.168 (0.094–0.448) percent concentration, wt:vol","0.026 (0.018–0.039) percent concentration, wt:vol","0.164 (0.093–0.429) percent concentration, wt:vol","0.019 (0.016–0.022) percent concentration, wt:vol","mortality ([6]; 24 hour exposure at each test through 10 weeks, each group of arthropods): 100%; time at which biocidal activity began to dissipate below the 100% mortality level ([6]; vials treated with 2% solutions): 11 weeks; LC50 [7, 11]: 0.031 percent concentration, wt:vol; LC90 (Aedes aegypti adults; [10]): 0.046 (0.037–0.061) percent concentration, wt:vol; LC50 (Aedes aegypti adults; [11]): 0.013 (0.011–0.015) percent concentration, wt:vol; LC90 (Aedes aegypti adults; [11]): 0.038 (0.031–0.051) percent concentration, wt:vol; LC50 (Ae. aegypti adults; [12]): 57 µg/mL; more effective than essential oil of Alaska yellow cedar (nymphal I. scapularis): about 98%; potency relative to essential oil of Alaska yellow cedar (nymphal I. scapularis): approximately 50 times"
"C=C(CO)C1CCC2=CCC[C@@H](C)[C@]2(C)C1 (stereo partly drawn) [Compound 10, 13-hydroxy-valencene]",,,considerable biological activity,,,"0.0071 (0.0055–0.0091) percent concentration, wt:vol","0.019 (0.014–0.031) percent concentration, wt:vol","0.024 (0.02–0.028) percent concentration, wt:vol","0.058 (0.046–0.081) percent concentration, wt:vol",,,"0.03 (0.022–0.041) percent concentration, wt:vol","0.113 (0.074–0.226) percent concentration, wt:vol","0.039 (0.029–0.053) percent concentration, wt:vol","0.131 (0.087–0.268) percent concentration, wt:vol","0.0083 (0.0057–0.011) percent concentration, wt:vol","0.044 (0.029–0.081) percent concentration, wt:vol","0.031 percent concentration, wt:vol","0.303 percent concentration, wt:vol","0.014 (0.012–0.016) percent concentration, wt:vol","C. pipiens LD50 (Culex p. pipiens): < 4.5×10^−3; LC50 (X. cheopis adults; Xenopsylla cheopis, 24 h, read-out: LC50): 83 µg/mL; LC90 (X. cheopis adults; Xenopsylla cheopis, 24 h, read-out: LC90): 210 µg/mL; LC90 (Aedes aegypti adults; [10]): 0.021 (0.019–0.027) percent concentration, wt:vol; LC50 (Aedes aegypti adults; [11]): 0.013 (0.0089–0.017) percent concentration, wt:vol; LC90 (Aedes aegypti adults; [11]): 0.04 (0.029–0.074) percent concentration, wt:vol; LC50 (Ae. aegypti adults; [12]): 34 µg/mL; EC90 (Ae. aegypti adults; Aedes aegypti, 24 h, read-out: LC90 (the source's name)): 140 µg/mL; LC50 (I. scapularis nymphs; Ixodes scapularis, 24 h): 51 µg/mL; LC90 (I. scapularis nymphs; Ixodes scapularis, 24 h, 24 h exposure, 95% CI in parentheses, read-out: LC90): 160 µg/mL"
